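96-well plates; 48 h exposure; 5 concentrations. Endpoints by linear interpolation between flanking doses. Not reached: highest tested concentration assigned. Abbreviation: GI50, concentration required for 50% inhibition of growth.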 Calls of active or inactive are those of the source. No stated cut-off is given here; in the data, active = GI50 up to about 1.1 µM and inactive = higher.
Columns and labels:
Assay in all cases: NCI anticancer screen, dose series, 48 h
OVCAR-8 = system: OVCAR-8
COLO 205 = system: COLO 205
UO-31 = system: UO-31
Hs-578T = system: Hs-578T
ACHN = system: ACHN
UACC-62 = system: UACC-62
SF-539 = system: SF-539
U-251 = system: U-251
OVCAR-5 = system: OVCAR-5
A549 = system: A549
SK-MEL-5 = system: SK-MEL-5
HCT-15 = system: HCT-15
MDA-MB-231 = system: MDA-MB-231
T47D = system: T47D
RXF 393 = system: RXF 393
HT-29 = system: HT-29
SF-268 = system: SF-268
SNB-75 = system: SNB-75
CCRF-CEM = system: CCRF-CEM

Compound	GI50 (OVCAR-8)	GI50 (COLO 205)	GI50 (UO-31)	GI50 (Hs-578T)	GI50 (ACHN)	GI50 (UACC-62)	GI50 (SF-539)	GI50 (U-251)	GI50 (OVCAR-5)	GI50 (A549)	GI50 (SK-MEL-5)	GI50 (HCT-15) [µM]	GI50 (MDA-MB-231)	GI50 (T47D)	GI50 (RXF 393)	GI50 (HT-29)	GI50 (SF-268)	GI50 (SNB-75)	GI50 (CCRF-CEM)
NS(=O)(=O)c1nnc(NC(=O)/C=C/C(=O)O)s1	> 100 µM (inactive)	> 100 µM (inactive)	> 100 µM (inactive)	> 100 µM (inactive)	> 100 µM (inactive)	> 100 µM (inactive)	> 100 µM (inactive)	> 100 µM (inactive)	> 100 µM (inactive)	> 100 µM (inactive)	> 100 µM (inactive)	> 100	> 100 µM (inactive)	> 100 µM (inactive)	> 100 µM (inactive)	> 100 µM (inactive)	> 100 µM (inactive)	–	–
Cn1c(=O)c2c(nc3n2CC(C(=O)O)N3)n(C)c1=O (centres undefined)	> 100 µM (inactive)	> 100 µM (inactive)	> 100 µM (inactive)	> 100 µM (inactive)	> 100 µM (inactive)	> 100 µM (inactive)	> 100 µM (inactive)	> 100 µM (inactive)	> 100 µM (inactive)	> 100 µM (inactive)	> 100 µM (inactive)	> 100	> 100 µM (inactive)	> 100 µM (inactive)	> 100 µM (inactive)	> 100 µM (inactive)	> 100 µM (inactive)	> 100 µM (inactive)	–
C1CSCCCSCCSCCCSC1	> 100 µM (inactive)	> 100 µM (inactive)	> 100 µM (inactive)	> 100 µM (inactive)	> 100 µM (inactive)	> 100 µM (inactive)	> 100 µM (inactive)	> 100 µM (inactive)	> 100 µM (inactive)	> 100 µM (inactive)	> 100 µM (inactive)	> 100	> 100 µM (inactive)	> 100 µM (inactive)	> 100 µM (inactive)	> 100 µM (inactive)	> 100 µM (inactive)	> 100 µM (inactive)	–
Nc1nc(Nc2ccccc2)sc1C(=O)c1ccco1	–	13.2 µM (inactive)	12.1 µM (inactive)	13.3 µM (inactive)	19.2 µM (inactive)	20.8 µM (inactive)	15.7 µM (inactive)	22.7 µM (inactive)	34 µM (inactive)	17.1 µM (inactive)	11.1 µM (inactive)	12.2	34.7 µM (inactive)	14.9 µM (inactive)	14.2 µM (inactive)	14.4 µM (inactive)	26.7 µM (inactive)	15.1 µM (inactive)	3.62 µM (inactive)
CC(=O)Nc1ccc(-c2nc3ccccc3s2)cc1Br	31 µM (inactive)	> 86.7 µM (inactive)	25.5 µM (inactive)	15.7 µM (inactive)	63.4 µM (inactive)	> 72.1 µM (inactive)	27.3 µM (inactive)	46 µM (inactive)	–	> 86.9 µM (inactive)	> 100 µM (inactive)	> 59.7	39.2 µM (inactive)	0.687 µM (active)	23.4 µM (inactive)	> 63.7 µM (inactive)	44.3 µM (inactive)	32.1 µM (inactive)	> 100 µM (inactive)
Fc1cc(C2=Nn3c(COc4ccccc4Cl)nnc3S/C2=C\c2ccc(Cl)cc2)c(Cl)cc1Cl	6.03 µM (inactive)	–	6.4 µM (inactive)	11.8 µM (inactive)	4.66 µM (inactive)	–	5.6 µM (inactive)	3.2 µM (inactive)	3.96 µM (inactive)	–	3.96 µM (inactive)	3.72	3.72 µM (inactive)	13.6 µM (inactive)	9.89 µM (inactive)	3.18 µM (inactive)	2.83 µM (inactive)	–	9.04 µM (inactive)
CCOC(=O)/C(C#N)=C/c1ccc(CO)o1	> 100 µM (inactive)	> 100 µM (inactive)	–	> 100 µM (inactive)	> 100 µM (inactive)	> 100 µM (inactive)	> 100 µM (inactive)	> 100 µM (inactive)	> 100 µM (inactive)	> 100 µM (inactive)	> 100 µM (inactive)	> 100	> 100 µM (inactive)	> 100 µM (inactive)	> 100 µM (inactive)	> 100 µM (inactive)	> 100 µM (inactive)	> 100 µM (inactive)	–
NCCSc1nc(-c2ccccc2)c(-c2ccccc2)o1	> 100 µM (inactive)	> 100 µM (inactive)	> 100 µM (inactive)	> 100 µM (inactive)	> 100 µM (inactive)	> 100 µM (inactive)	> 100 µM (inactive)	> 100 µM (inactive)	> 100 µM (inactive)	> 100 µM (inactive)	> 100 µM (inactive)	> 100	> 100 µM (inactive)	25.2 µM (inactive)	42.2 µM (inactive)	31.7 µM (inactive)	> 100 µM (inactive)	21 µM (inactive)	–
Cc1ccc(/N=N/N(C)C(C)C(O)Cc2ccccc2)cc1 (centres undefined)	37.7 µM (inactive)	40.9 µM (inactive)	18 µM (inactive)	41.9 µM (inactive)	78.5 µM (inactive)	52.1 µM (inactive)	–	88.5 µM (inactive)	> 100 µM (inactive)	60.5 µM (inactive)	39.6 µM (inactive)	41	52.7 µM (inactive)	33.7 µM (inactive)	40.6 µM (inactive)	80.4 µM (inactive)	46 µM (inactive)	43.9 µM (inactive)	32.7 µM (inactive)
CCOC(=O)Nc1c(C#N)[n+]([O-])c2cc(Cl)c(Cl)cc2[n+]1[O-]	13.4 µM (inactive)	15 µM (inactive)	16.6 µM (inactive)	39.5 µM (inactive)	–	10.7 µM (inactive)	12.9 µM (inactive)	14.3 µM (inactive)	–	22 µM (inactive)	10.5 µM (inactive)	5.13	15.9 µM (inactive)	13.5 µM (inactive)	15.1 µM (inactive)	12 µM (inactive)	15.3 µM (inactive)	15.4 µM (inactive)	4.37 µM (inactive)
O=C(Nc1ccccc1)c1cc2cc(CCl)ccc2oc1=O	> 100 µM (inactive)	> 100 µM (inactive)	> 100 µM (inactive)	15 µM (inactive)	17 µM (inactive)	16.6 µM (inactive)	–	47 µM (inactive)	> 100 µM (inactive)	99.3 µM (inactive)	> 100 µM (inactive)	> 100	64.1 µM (inactive)	> 100 µM (inactive)	33.4 µM (inactive)	8.57 µM (inactive)	47 µM (inactive)	34.7 µM (inactive)	> 100 µM (inactive)
NC1=C(N2CCCCC2)C(=O)NC2=N/C(=C\c3ccccc3)C(=O)N21	> 100 µM (inactive)	> 100 µM (inactive)	> 100 µM (inactive)	> 100 µM (inactive)	> 100 µM (inactive)	–	> 100 µM (inactive)	> 100 µM (inactive)	> 100 µM (inactive)	> 100 µM (inactive)	> 100 µM (inactive)	> 100	> 100 µM (inactive)	> 100 µM (inactive)	> 100 µM (inactive)	> 100 µM (inactive)	> 100 µM (inactive)	> 100 µM (inactive)	> 100 µM (inactive)
CN(/N=C/c1cccs1)c1ccc([N+](=O)[O-])cc1[N+](=O)[O-]	> 100 µM (inactive)	> 100 µM (inactive)	> 100 µM (inactive)	> 100 µM (inactive)	> 100 µM (inactive)	> 100 µM (inactive)	> 100 µM (inactive)	> 100 µM (inactive)	–	> 100 µM (inactive)	> 100 µM (inactive)	> 100	> 100 µM (inactive)	> 100 µM (inactive)	> 100 µM (inactive)	> 100 µM (inactive)	> 100 µM (inactive)	77.8 µM (inactive)	> 100 µM (inactive)
COC(C)(C)[C@@H]1CCCN1C1=C(C)C(=O)OC1	–	> 100 µM (inactive)	> 100 µM (inactive)	> 100 µM (inactive)	> 100 µM (inactive)	> 100 µM (inactive)	> 100 µM (inactive)	> 100 µM (inactive)	> 100 µM (inactive)	–	> 100 µM (inactive)	> 100	> 100 µM (inactive)	> 100 µM (inactive)	> 100 µM (inactive)	–	> 100 µM (inactive)	> 10 µM (inactive)	> 100 µM (inactive)
C#CCn1c(=O)c2ccccc2n(CC#C)c1=O	> 10 µM (inactive)	> 10 µM (inactive)	> 10 µM (inactive)	> 10 µM (inactive)	> 10 µM (inactive)	–	> 10 µM (inactive)	> 10 µM (inactive)	> 10 µM (inactive)	> 10 µM (inactive)	> 10 µM (inactive)	> 10	> 10 µM (inactive)	> 10 µM (inactive)	> 10 µM (inactive)	> 10 µM (inactive)	> 10 µM (inactive)	> 10 µM (inactive)	> 10 µM (inactive)
CC(=O)OC1CC2CCC1(C)C2(C)C (centres undefined)	> 100 µM (inactive)	> 100 µM (inactive)	> 100 µM (inactive)	> 100 µM (inactive)	> 100 µM (inactive)	> 100 µM (inactive)	> 100 µM (inactive)	> 100 µM (inactive)	> 100 µM (inactive)	–	–	> 100	> 100 µM (inactive)	> 100 µM (inactive)	> 100 µM (inactive)	> 100 µM (inactive)	> 100 µM (inactive)	> 100 µM (inactive)	> 100 µM (inactive)
